From ChEMBL document CHEMBL4190372, “Discovery of a Novel Oral Glucocorticoid Receptor Modulator (AZD9567) with Improved Side Effect Profile” (J Med Chem, 2018)
In brackets after ≈: the same amount, converted by molar mass.

Columns and labels:
[1] = Aqueous solubility of the compound; type: physicochemical; details: aqueous; read-out: solubility
[2] = target: T1, Mineralocorticoid receptor (Homo sapiens, UniProt P08235); assay: Displacement of [3H]-aldosterone from human mineralocorticoid receptor LBD (729 to 984 residues) after 1 hr by scintillation proximity assay
T1 sequence (P08235 whole entry): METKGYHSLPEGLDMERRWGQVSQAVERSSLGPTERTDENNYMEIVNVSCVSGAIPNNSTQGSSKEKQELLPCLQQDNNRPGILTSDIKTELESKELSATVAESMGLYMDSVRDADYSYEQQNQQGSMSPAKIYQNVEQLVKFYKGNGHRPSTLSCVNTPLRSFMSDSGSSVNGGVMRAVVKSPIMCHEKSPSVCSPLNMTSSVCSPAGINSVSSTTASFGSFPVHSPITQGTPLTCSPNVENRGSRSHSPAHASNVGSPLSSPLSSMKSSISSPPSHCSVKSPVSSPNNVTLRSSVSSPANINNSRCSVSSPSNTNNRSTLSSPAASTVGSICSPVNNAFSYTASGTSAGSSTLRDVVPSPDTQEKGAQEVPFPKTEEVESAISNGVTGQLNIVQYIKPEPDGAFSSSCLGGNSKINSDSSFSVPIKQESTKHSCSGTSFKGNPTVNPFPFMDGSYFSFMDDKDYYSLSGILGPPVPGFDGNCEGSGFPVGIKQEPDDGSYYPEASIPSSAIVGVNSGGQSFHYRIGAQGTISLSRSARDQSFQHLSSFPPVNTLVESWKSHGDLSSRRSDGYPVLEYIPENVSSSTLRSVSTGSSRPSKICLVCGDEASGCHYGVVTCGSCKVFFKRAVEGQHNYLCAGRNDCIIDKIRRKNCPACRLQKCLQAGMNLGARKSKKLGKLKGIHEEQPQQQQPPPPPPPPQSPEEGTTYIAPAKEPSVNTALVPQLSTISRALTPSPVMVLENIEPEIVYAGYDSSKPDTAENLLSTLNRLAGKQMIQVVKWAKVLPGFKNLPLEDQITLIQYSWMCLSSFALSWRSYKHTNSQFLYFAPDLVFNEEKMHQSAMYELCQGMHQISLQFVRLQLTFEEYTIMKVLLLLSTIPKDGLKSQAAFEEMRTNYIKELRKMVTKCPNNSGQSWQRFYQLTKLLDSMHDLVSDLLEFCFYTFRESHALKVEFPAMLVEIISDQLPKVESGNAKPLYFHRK

Estrogen receptor = target: T2, Estrogen receptor (Homo sapiens, UniProt P03372); assay: Binding affinity to human ERalpha expressed in Sf9 cells by fluoligand binding-based fluorescence polarization method
T2 sequence (P03372 whole entry): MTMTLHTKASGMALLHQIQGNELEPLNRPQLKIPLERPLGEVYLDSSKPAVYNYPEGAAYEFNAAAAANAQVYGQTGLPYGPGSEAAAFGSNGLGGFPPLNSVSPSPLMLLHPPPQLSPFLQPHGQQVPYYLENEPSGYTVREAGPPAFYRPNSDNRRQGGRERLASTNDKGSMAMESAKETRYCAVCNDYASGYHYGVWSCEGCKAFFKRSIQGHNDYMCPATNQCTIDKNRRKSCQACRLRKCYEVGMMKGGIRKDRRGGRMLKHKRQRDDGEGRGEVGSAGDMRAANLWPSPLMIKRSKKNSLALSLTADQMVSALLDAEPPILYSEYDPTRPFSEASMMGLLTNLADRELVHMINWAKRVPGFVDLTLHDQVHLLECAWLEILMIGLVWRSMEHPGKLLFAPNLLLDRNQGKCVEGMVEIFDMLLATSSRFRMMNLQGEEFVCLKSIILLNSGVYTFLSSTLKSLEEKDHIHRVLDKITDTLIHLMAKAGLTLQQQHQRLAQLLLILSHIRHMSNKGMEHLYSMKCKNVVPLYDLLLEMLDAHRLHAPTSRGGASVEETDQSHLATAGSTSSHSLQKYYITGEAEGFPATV

Estrogen receptor beta = Estrogen receptor beta (Homo sapiens, UniProt Q92731); assay: Binding affinity to human ERbeta expressed in Sf9 cells by fluoligand binding-based fluorescence polarization method
[3] = Tmax in Han-Wistar rat at 3.5 mg/kg, po; type: ADME, organism-based; details: in vivo
Rattus norvegicus [4] = assay: Dose normalized Cmax in Han-Wistar rat at 3.5 mg/kg, po; type: ADME, organism-based; details: in vivo
[5] = Terminal half life in Han-Wistar rat at 0.9 mg/kg, iv; type: ADME, organism-based; details: in vivo, read-out: beta t1/2 (converted)
[6] = Terminal half life in Han-Wistar rat at 3.5 mg/kg, po; type: ADME, organism-based; details: in vivo, read-out: beta t1/2 (converted)
Rattus norvegicus [7] = assay: Dose normalized AUC (0 to infinity) in Han-Wistar rat at 3.5 mg/kg, po; type: ADME, organism-based; details: in vivo
[8] = Clearance in Han-Wistar rat at 0.9 mg/kg, iv; type: ADME, organism-based; details: in vivo
[9] = Volume of distribution at steady state in Han-Wistar rat at 0.9 mg/kg, iv; type: ADME, organism-based; details: in vivo, read-out: Vdss
Rattus norvegicus [10] = assay: Antiinflammatory activity in streptococcal cell wall reactivation Lewis rat model assessed as reduction of joint swelling at 5 mg/kg administered once daily for 8 days by oral gavage starting 1 day prior to streptococcal cell wall challenge measured during 6 days post challenge relative to control; type: functional; set-up: scale not given: the % may be the effect or the level left
Rattus norvegicus [11] = assay: Antiinflammatory activity in streptococcal cell wall reactivation Lewis rat model assessed as reduction of joint swelling at 20 mg/kg administered once daily for 8 days by oral gavage starting 1 day prior to streptococcal cell wall challenge measured during 6 days post challenge relative to control; type: functional; set-up: scale not given: the % may be the effect or the level left
Glucocorticoid receptor = target: T3, Glucocorticoid receptor (Homo sapiens, UniProt P04150); details: hepatocytes, 18 h
T3 sequence (P04150 whole entry): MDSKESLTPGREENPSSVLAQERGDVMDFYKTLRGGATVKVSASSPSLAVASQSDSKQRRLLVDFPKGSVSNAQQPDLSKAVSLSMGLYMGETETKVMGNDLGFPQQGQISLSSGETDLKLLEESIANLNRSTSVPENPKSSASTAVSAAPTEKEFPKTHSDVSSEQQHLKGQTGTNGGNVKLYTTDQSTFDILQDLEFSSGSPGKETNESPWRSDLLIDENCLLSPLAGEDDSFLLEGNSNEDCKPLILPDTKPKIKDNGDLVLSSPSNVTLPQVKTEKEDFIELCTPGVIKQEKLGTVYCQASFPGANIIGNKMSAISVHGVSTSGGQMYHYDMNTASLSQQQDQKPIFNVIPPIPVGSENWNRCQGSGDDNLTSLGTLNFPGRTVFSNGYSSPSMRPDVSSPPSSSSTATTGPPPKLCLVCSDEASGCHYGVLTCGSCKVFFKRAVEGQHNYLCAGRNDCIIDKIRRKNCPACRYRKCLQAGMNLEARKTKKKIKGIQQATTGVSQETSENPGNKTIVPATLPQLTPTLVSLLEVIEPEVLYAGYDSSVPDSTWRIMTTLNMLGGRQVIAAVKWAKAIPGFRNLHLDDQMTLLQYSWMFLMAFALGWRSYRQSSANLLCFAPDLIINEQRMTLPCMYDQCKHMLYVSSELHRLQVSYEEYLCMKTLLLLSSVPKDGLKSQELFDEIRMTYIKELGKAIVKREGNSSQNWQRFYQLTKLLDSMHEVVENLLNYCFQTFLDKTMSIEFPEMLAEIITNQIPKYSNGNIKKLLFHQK
Description: Transactivation of GR in cryopreserved human primary hepatocytes assessed as upregulation of TAT mRNA expression level after 18 hrs by RT-qPCR analysis

[12] = target: T4, Glucocorticoid receptor (Homo sapiens) (UniProt P04150)
T4 sequence (whole entry): T3 sequence (P04150 whole entry)
Description: Transrepression of GR in cryopreserved human fetal osteoblasts assessed as inhibition of OPG mRNA expression after 4 hrs by RT-qPCR analysis

[13] = Drug metabolism in rat hepatocytes treated with N-((1R,2S)-1-(3-chloro-4-cyanophenoxy)-1-(6-methoxypyridin-3-yl)propan-2-yl)-2,2-difluoropropanamide; type: ADME, cell-based, Hepatocyte
[14] = Drug metabolism in human hepatocytes treated with N-((1R,2S)-1-(3-chloro-4-cyanophenoxy)-1-(6-methoxypyridin-3-yl)propan-2-yl)-2,2-difluoropropanamide; type: ADME, cell-based, Hepatocyte

Estrogen receptor beta, sequence (Q92731 whole entry): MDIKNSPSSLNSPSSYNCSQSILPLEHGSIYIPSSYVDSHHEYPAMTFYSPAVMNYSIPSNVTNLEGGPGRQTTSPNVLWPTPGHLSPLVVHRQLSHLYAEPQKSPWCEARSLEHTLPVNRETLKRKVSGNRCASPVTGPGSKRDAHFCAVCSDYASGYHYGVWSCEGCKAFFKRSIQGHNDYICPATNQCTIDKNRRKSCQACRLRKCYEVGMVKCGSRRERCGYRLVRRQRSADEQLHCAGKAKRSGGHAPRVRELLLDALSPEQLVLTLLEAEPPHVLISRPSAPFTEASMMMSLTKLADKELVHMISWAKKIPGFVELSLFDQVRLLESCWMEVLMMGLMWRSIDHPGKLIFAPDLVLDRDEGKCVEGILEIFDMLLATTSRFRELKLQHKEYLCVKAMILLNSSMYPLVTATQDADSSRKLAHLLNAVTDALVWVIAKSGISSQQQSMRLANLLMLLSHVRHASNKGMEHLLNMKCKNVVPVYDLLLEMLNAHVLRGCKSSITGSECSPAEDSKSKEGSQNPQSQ

| SMILES | solubility [1] | IC50 [2] | IC50 (Estrogen receptor) | IC50 (Estrogen receptor beta) | Tmax [3] | Cmax/dose (Rattus norvegicus [4]) | half-life [5] | half-life [6] | AUC/dose (Rattus norvegicus [7]) | clearance [8] | Vd [9] | Activity (Rattus norvegicus [10]) | Activity (Rattus norvegicus [11]) | fEC50 (Glucocorticoid receptor) | fIC20 [12] | Drug metabolism [13] | Drug metabolism [14] |
| --- | --- | --- | --- | --- | --- | --- | --- | --- | --- | --- | --- | --- | --- | --- | --- | --- | --- |
| C[C@]12C=CC(=O)C=C1CC[C@@H]1[C@@H]2[C@@H](O)C[C@@]2(C)[C@H]1CC[C@]2(O)C(=O)CO [PREDNISOLONE] | 310 µM (≈ 112 µg/mL) | 0.011 µM | > 100 µM | > 100 µM | 16.8 min | 100 nM | 24 min | 150 min | 0.094 µM·h | 90 mL/min/kg | 1.2 L/kg | 59% | 73% | 24 nM | 0.88 nM |  |  |
| C[C@H](NC(=O)C(C)(F)F)[C@H](Oc1ccc(C#N)c(Cl)c1)c1ccc(O)nc1 |  |  |  |  |  |  |  |  |  |  |  |  |  |  |  | Metabolite_Detected | Metabolite_Detected |
